Laboratory results from patent US8877707B2, “Inhibitors of HCV NS5A” (Presidio Pharmaceuticals, Inc., priority 2010, dated 2014).

These compounds were tested on HCV genotype 1b replicon in Huh 7 cells (assay: HCV replicon assay (1b_Huh-Luc/Neo-ET cell line, luciferase readout)). Details: Hepatitis C virus; Table 1; genotype 1b replicon, Huh 7 cells, 72 h, luciferase; read-out: Inhibition of HCV genotype 1b.
Format: cell-based
Outline: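 Replicon level was read as luciferase signal after 72 h compound exposure, triplicate wells, starting the day after cells were plated. Cell line: 1b_Huh-Luc/Neo-ET. Values normalised to control as percent, and EC50 fitted with a variable-slope sigmoid; determinations repeated.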

SMILES	EC50
COC(=O)N[C@H](C(=O)N1CCC[C@H]1c1nc(-c2ccc3cc(-c4ccc(-c5cnc([C@@H]6CCCN6C(=O)[C@H](NC(=O)OC)c6ccsc6)[nH]5)cc4)ccc3c2)c[nH]1)C1CCOCC1 [compound 110]	< 1 nM
COC(=O)N[C@H](C(=O)N1CCC[C@H]1c1nc(-c2ccc3cc(-c4ccc(-c5cnc([C@@H]6CCCN6C(=O)[C@H](NC(=O)OC)c6ccc(F)cc6)[nH]5)cc4)ccc3c2)c[nH]1)C1CCOCC1 [compound 111]	< 1 nM
COC(=O)N[C@H](C(=O)N1CCC[C@H]1c1nc(-c2ccc3cc(-c4ccc(-c5cnc([C@@H]6CCCN6C(=O)[C@@H](NC(=O)OC6CCOCC6)c6ccccc6)[nH]5)cc4)ccc3c2)c[nH]1)C1CCOCC1 [compound 112]	< 1 nM
COC(=O)N[C@H](C(=O)N1CCC[C@H]1c1nc(-c2ccc3cc(-c4ccc(-c5cnc([C@@H]6CCCN6C(=O)[C@H](NC(=O)OC6CCOCC6)c6ccccc6)[nH]5)cc4)ccc3c2)c[nH]1)C1CCOCC1 [compound 113]	< 1 nM
COC(=O)N[C@H](C(=O)N1CCC[C@H]1c1nc(-c2ccc3cc(-c4ccc(-c5cnc([C@@H]6CCCN6C(=O)[C@H](NC(=O)OC)c6ccccc6)[nH]5)cc4F)ccc3c2)c[nH]1)C1CCOCC1 [compound 114]	< 1 nM
COC(=O)N[C@H](C(=O)N1CCC[C@H]1c1ncc(-c2ccc3cc(-c4ccc(-c5cnc([C@@H]6CCCN6C(=O)[C@H](NC(=O)OC)c6ccccc6)[nH]5)cc4)ccc3c2)[nH]1)[C@@H](C)OC [compound 115]	< 1 nM
COC(=O)N[C@H](C(=O)N1CCC[C@H]1c1ncc(-c2ccc3cc(-c4ccc(-c5cnc([C@@H]6CCCN6C(=O)[C@@H](c6ccccc6)N6CCOCC6)[nH]5)cc4)ccc3c2)[nH]1)C(C)C [compound 116]	< 1 nM
COC(=O)N[C@H](C(=O)N1CCC[C@H]1c1ncc(-c2ccc3cc(-c4ccc(-c5cnc([C@@H]6CCCN6C(=O)[C@H](NC(=O)OC6CCOCC6)c6ccccc6)[nH]5)cc4)ncc3c2)[nH]1)C1CCOCC1 [compound 117]	< 1 nM
COC(=O)N[C@H](C(=O)N1CCC[C@H]1c1ncc(-c2ccc3cc(-c4ccc(-c5cnc([C@@H]6CCCN6C(=O)[C@H](NC(=O)OC(C)(C)C)c6ccccc6)[nH]5)cc4)ncc3c2)[nH]1)C1CCOCC1 [compound 118]	< 1 nM
COC(=O)N[C@H](C(=O)N1CCC[C@H]1c1ncc(-c2ccc(-c3ccc4cc(-c5cnc([C@@H]6CCCN6C(=O)[C@H](NC(=O)OC)c6ccccc6)[nH]5)ccc4n3)c(F)c2)[nH]1)C(C)C [compound 119]	< 1 nM
COC(=O)N[C@H](C(=O)N1CCC[C@H]1c1ncc(-c2ccc(-c3ccc4cc(-c5cnc([C@@H]6CCCN6C(=O)[C@@H](NC(=O)OC)C6CCOCC6)[nH]5)ccc4n3)c(F)c2)[nH]1)C(C)C [compound 120]	< 1 nM
COC(=O)N[C@H](C(=O)N1CCC[C@H]1c1ncc(-c2ccc(-c3ccc4cc(-c5cnc([C@@H]6CCCN6C(=O)[C@H](NC(=O)OC6CCOCC6)c6ccccc6)[nH]5)ccc4n3)c(F)c2)[nH]1)C(C)C [compound 121]	< 1 nM
COC(=O)N[C@H](C(=O)N1CCC[C@H]1c1ncc(-c2ccc(-c3ccc4cc(-c5cnc([C@@H]6CCCN6C(=O)[C@H](NC(=O)OC(C)(C)C)c6ccccc6)[nH]5)ccc4n3)c(F)c2)[nH]1)C(C)C [compound 122]	< 1 nM
COC(=O)N[C@H](C(=O)N1CCC[C@H]1c1ncc(-c2ccc(-c3ccc4cc(-c5cnc([C@@H]6CCCN6C(=O)[C@@H](NC(=O)OC)C6CCOCC6)[nH]5)ccc4n3)cc2F)[nH]1)C(C)C [compound 123]	< 1 nM
COC(=O)N[C@H](C(=O)N1CCC[C@H]1c1ncc(-c2ccc(-c3ccc4cc(-c5cnc([C@@H]6CCCN6C(=O)[C@H](NC(=O)OC)c6ccccc6)[nH]5)ccc4n3)cc2F)[nH]1)C(C)C [compound 124]	< 1 nM
COC(=O)N[C@H](C(=O)N1CCC[C@H]1c1ncc(-c2ccc(-c3ccc4cc(-c5cnc([C@@H]6CCCN6C(=O)[C@H](NC(=O)OC6CCOCC6)c6ccccc6)[nH]5)ccc4n3)cc2F)[nH]1)C(C)C [compound 125]	< 1 nM
COC(=O)N[C@H](C(=O)N1CCC[C@H]1c1ncc(-c2ccc3nc(-c4ccc(-c5cnc([C@@H]6CCCN6C(=O)[C@@H](NC(=O)OC)C(C)C)[nH]5)c(F)c4)ccc3c2)[nH]1)C(C)C [compound 126]	< 1 nM
COC(=O)N[C@H](C(=O)N1CCC[C@H]1c1ncc(-c2ccc3cc(-c4ccc(-c5cnc([C@@H]6CCCN6C(=O)[C@H](NC(=O)OC)c6ccccc6)[nH]5)c(F)c4)ncc3c2)[nH]1)C1CCOCC1 [compound 127]	< 1 nM
COC(=O)N[C@H](C(=O)N1CCC[C@H]1c1ncc(-c2ccc(-c3cc4ccc(-c5cnc([C@@H]6CCCN6C(=O)[C@@H](NC(=O)OC)C6CCOCC6)[nH]5)cc4cn3)cc2F)[nH]1)C(C)C [compound 128]	< 1 nM
COC(=O)N[C@H](C(=O)N1CCC[C@H]1c1ncc(-c2ccc(-c3ccc4cc(-c5cnc([C@@H]6CCCN6C(=O)[C@H](NC(=O)OC)c6ccccc6)[nH]5)ccc4n3)c(F)c2)[nH]1)C1CCOCC1 [compound 129]	< 1 nM

SMILES	EC50
COC(=O)N[C@H](C(=O)N1CCC[C@H]1c1ncc(-c2cccc(-c3cccc4cc(-c5cnc([C@@H]6CCCN6C(=O)[C@@H](NC(=O)OC)C(C)C)[nH]5)ccc34)c2)[nH]1)C(C)C [compound 130]	< 1 nM
COC(=O)N[C@H](C(=O)N1CCC[C@H]1c1ncc(-c2ccc3cc(-c4ccc(-c5cnc([C@@H]6COCCN6C(=O)[C@H](NC(=O)OC)c6ccccc6)[nH]5)cc4)ccc3c2)[nH]1)C(C)C [compound 131]	< 1 nM
COC(=O)N[C@H](C(=O)N1CCC[C@H]1c1ncc(-c2ccc(-c3ccc4cc(-c5cnc([C@@H]6COCCN6C(=O)[C@H](NC(=O)OC)c6ccccc6)[nH]5)ccc4c3)cc2)[nH]1)C(C)C [compound 132]	< 1 nM
COC(=O)N[C@H](C(=O)N1CCC[C@H]1c1ncc(-c2ccc(-c3ccc4cc(-c5cnc([C@@H]6CCCN6C(=O)[C@@H](NC(=O)OC)C6CCOCC6)[nH]5)ccc4c3)cc2)[nH]1)C1CCOCC1 [compound 133]	< 1 nM
COC(=O)N[C@H](C(=O)N1CCC[C@H]1c1ncc(-c2ccc3nc(-c4ccc(-c5cnc([C@@H]6CCCN6C(=O)[C@H](NC(=O)OC)c6ccccc6)[nH]5)cc4F)ccc3c2)[nH]1)C1CCOCC1 [compound 134]	< 1 nM
COC(=O)N[C@H](C(=O)N1CCC[C@H]1c1ncc(-c2ccc3nc(-c4ccc(-c5cnc([C@@H]6CCCN6C(=O)[C@H](NC(=O)OC(C)(C)C)c6ccccc6)[nH]5)cc4F)ccc3c2)[nH]1)C1CCOCC1 [compound 135]	< 1 nM
COC(=O)N[C@H](C(=O)N1CCC[C@H]1c1ncc(-c2ccc(-c3ccc4cc(-c5cnc([C@@H]6CCCN6C(=O)[C@H](NC(=O)OC(C)(C)C)c6ccccc6)[nH]5)ccc4n3)c(F)c2)[nH]1)C1CCOCC1 [compound 136]	< 1 nM
COC(=O)N[C@H](C(=O)N1CCOC[C@H]1c1ncc(-c2ccc(-c3ccc4cc(-c5cnc([C@@H]6CCCN6C(=O)[C@H](NC(=O)OC)c6ccccc6)[nH]5)ccc4c3)cc2)[nH]1)C(C)C [compound 137]	< 1 nM
COC(=O)N[C@H](C(=O)N1CCOC[C@H]1c1ncc(-c2ccc3cc(-c4ccc(-c5cnc([C@@H]6CCCN6C(=O)[C@H](NC(=O)OC)c6ccccc6)[nH]5)cc4)ccc3c2)[nH]1)C(C)C [compound 138]	< 1 nM
COC(=O)N[C@H](C(=O)N1CCC[C@H]1c1ncc(-c2ccc3cc(-c4ccc(-c5cnc([C@@H]6COCCN6C(=O)[C@@H](NC(=O)OC)C(C)C)[nH]5)cc4)ccc3c2)[nH]1)C(C)C [compound 139]	< 1 nM
COC(=O)N[C@H](C(=O)N1CCC[C@H]1c1ncc(-c2ccc(-c3ccc4cc(-c5cnc([C@@H]6COCCN6C(=O)[C@@H](NC(=O)OC)C(C)C)[nH]5)ccc4c3)cc2)[nH]1)C(C)C [compound 140]	< 1 nM
COC(=O)N[C@H](C(=O)N1CCC[C@H]1c1ncc(-c2ccc(-c3ccc4cc(-c5cnc([C@@H]6CCCN6C(=O)[C@@H](NC(=O)OC)C6CCOCC6)[nH]5)ccc4c3)c(F)c2)[nH]1)C1CCOCC1 [compound 141]	< 1 nM
CC[C@@H](C)[C@H](NC(=O)OC)C(=O)N1CCC[C@H]1c1ncc(-c2ccc(-c3ccc4cc(-c5cnc([C@@H]6CCCN6C(=O)[C@@H](NC(=O)OC)[C@H](C)CC)[nH]5)ccc4c3)cc2)[nH]1 [compound 142]	< 1 nM
COC(=O)N[C@H](C(=O)N1CCC[C@H]1c1ncc(-c2ccc(-c3ccc4cc(-c5cnc([C@@H]6CCCN6C(=O)[C@@H](NC(=O)OC)C6CC6)[nH]5)ccc4c3)cc2)[nH]1)C1CC1 [compound 143]	< 1 nM
CNC(=O)N[C@@H](C(=O)N1CCC[C@H]1c1ncc(-c2ccc(-c3cc4ccc(-c5cnc([C@@H]6CCCN6C(=O)[C@@H](NC(=O)OC)C6CCOCC6)[nH]5)cc4cn3)cc2)[nH]1)c1ccccc1 [compound 144]	< 1 nM
COC(=O)N[C@H](C(=O)N1CCC[C@H]1c1ncc(-c2ccc3cc(-c4ccc(-c5cnc([C@@H]6CCCN6C(=O)[C@H](NC(=O)NC6CC6)c6ccccc6)[nH]5)cc4)ncc3c2)[nH]1)C1CCOCC1 [compound 145]	< 1 nM
COC(=O)N[C@H](C(=O)N1CCC[C@H]1c1ncc(-c2ccc3nc(-c4ccc(-c5cnc([C@@H]6C[C@@H](O)CN6C(=O)[C@@H](NC(=O)OC)C(C)C)[nH]5)cc4)ccc3c2)[nH]1)C(C)C [compound 146]	< 1 nM
COC(=O)N[C@H](C(=O)N1C[C@H](O)C[C@H]1c1ncc(-c2ccc(-c3ccc4cc(-c5cnc([C@@H]6CCCN6C(=O)[C@@H](NC(=O)OC)C6CCOCC6)[nH]5)ccc4n3)cc2)[nH]1)C(C)C [compound 147]	< 1 nM
COC(=O)N[C@H](C(=O)N1C[C@H](O)C[C@H]1c1ncc(-c2ccc(-c3ccc4cc(-c5cnc([C@@H]6CCCN6C(=O)[C@H](NC(=O)OC)c6ccccc6)[nH]5)ccc4n3)cc2)[nH]1)C(C)C [compound 148]	< 1 nM
COC(=O)N[C@H](C(=O)N1C[C@H](O)C[C@H]1c1ncc(-c2ccc(-c3ccc4cc(-c5cnc([C@@H]6CCCN6C(=O)[C@H](NC(=O)OC6CCOCC6)c6ccccc6)[nH]5)ccc4n3)cc2)[nH]1)C(C)C [compound 149]	< 1 nM
